Patent publication US6949522B2, “β-2′- or 3′-halonucleosides” (Pharmasset, Inc., priority 2001, dated 2005)
Read-outs that look alike come from different tables or passages of the source.

Tests used:
HBV = settings: read-out: inhibition of HBV EC50; cited from earlier work
[1] = biological target: T1, adenosine deaminase (EC 3.5.4.4) (Bos taurus, UniProt P56658); assay: in vitro; settings: bovine, pH 7.4
T1 sequence (P56658 1-363): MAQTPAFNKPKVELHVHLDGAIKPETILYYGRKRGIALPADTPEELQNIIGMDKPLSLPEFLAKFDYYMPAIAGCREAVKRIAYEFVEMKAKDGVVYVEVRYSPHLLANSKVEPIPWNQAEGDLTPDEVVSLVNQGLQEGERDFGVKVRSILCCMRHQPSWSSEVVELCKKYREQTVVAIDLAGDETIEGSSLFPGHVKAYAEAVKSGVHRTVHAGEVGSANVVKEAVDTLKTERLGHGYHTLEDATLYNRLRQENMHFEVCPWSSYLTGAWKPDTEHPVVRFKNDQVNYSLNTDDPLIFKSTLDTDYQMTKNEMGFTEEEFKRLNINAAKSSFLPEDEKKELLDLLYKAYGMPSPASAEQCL
Description: (§1) Assays were performed at 25° C. in phosphate buffer solution (pH 7.4) with substrate concentrations in the range of 15-100 μM and with 0.15 unit of adenosine deaminase (EC.3.5.4.4. from calf intestinal mucosa). The assays were monitored with a UV spectrometer at 265 nm. Initially, the qualitative assays were performed with D-β-2′-F-4′-S-d4A 24 (200 μM) in the presence of 0.24 unit of adenosine deaminase for 120 minutes to determine whether it is a substrate of this enzyme. The concentration (ct) of each substrate at a certain time (t) was calculated from the absorbance (At) at that time (t), where it was assumed that the total change of absorbance (A0−A∞) was directly related to the disappearance of the substrate.^35 Initial hydrolysis rates for each substrate concentration were measured manually through graphical curve fitting of the concentration versus time data for reaction of each substrate. From Lineweaver-Burke plot of these initial rates, Vmax (maximum velocity) and KM (Michaelis constant) were obtained for each substrate and kcat was also calculated with 0.15 unit of the enzyme (M.W. 33,000) in 2 mL of buffer solution.

[2] = test system: CEM (T-lymphoblastoid cell line); format: cell-based
Description: (§2) The compounds were evaluated for their potential toxic effects on uninfected PHA-stimulated human PBM cells, in CEM (T-lymphoblastoid cell line obtained from American Type Culture Collection, Rockville, Md.) and Vero (African green monkey kidney) cells. PBM cells were obtained from whole blood of healthy seronegative donors (HIV-1 and hepatitis B virus) by single-step Ficoll-Hypaque discontinous gradient centrifugation. Log phase Vero, CEM and PHA-stimulated human PBM cells were seeded at a density of 5×10^3, 2.5×10^3 and 5×10^4 cells/well respectively. All of the cells were plated in 96-well cell culture plates containing ten-fold serial dilutions of the test drug. The cultures were incubated for 3, 4 and 5 days for Vero, CEM, and PBM cells, respectively in a humidified 5% CO2-air at 37° C. At the end of incubation, MTT tetrazolium dye solution (Cell titer 96®, Promega, Madison, Wis.) was added to each well and incubated overnight. The reaction was stopped with stop solubilization solution (Promega, Madison, Wis.). The plates were incubated for 5 hours to ensure that the formazan crystals were dissolved. The plates were read at a wavelength of 570 nm using an ELISA plate reader (Bio-tek instruments, Inc., Winooski, Vt., Model # EL 312e). […] Bookmark not defined.

human PBM cells = assay: in vitro; format: cell-based
Description: as §2, with “Log phase Vero, CEM and PHA-stimulated human PBM cells were seeded at a density of 5×10^3, 2.5×10^3 and 5×10^4 cells/well respectively.” left out, “The cultures were incubated for 3, 4 and 5 days for Vero, CEM, and PBM cells, respectively in a humidified 5% CO2-air at 37° C.” left out

[3] = biological target: T2, adenosine deaminase (EC.3.5.4.4. from calf intestinal mucosa) (Bos taurus, UniProt P56658); assay: in vitro
T2 sequence (P56658 1-363): T1 sequence (P56658 1-363)
Description: as §1

[4] = test system: Vero (African green monkey kidney) cells; assay: in vitro; format: cell-based
Description: as §2

HIV-1LAI = assay: HIV assay in human PBM cells (RT activity of supernatant); format: cell-based; settings: 5 days, read-out: Anti-HIV-1 Activity (EC50)
Text: Human peripheral blood mononuclear (PBM) cells (obtained from Atlanta Red Cross) were isolated by Ficoll-Hypaque discontinuous gradient centrifugation from healthy seronegative donors. Cells were stimulated with phytohemagglutinin A (Difco, Sparks, Md.) for 2-3 days prior to use. HIV-1LAI obtained from the Centers for Disease Control and Prevention (Atlanta, Ga.) was used as the standard reference virus for the antiviral assays. The molecular infetious clones HIV-1xxBru and HIV-1M184Vpin were obtained from Dr. John Mellors (University of Pittsburgh). Infections were done in bulk for one hour, either with 100 TCID50/1×10^7 cells for a flask (T25) assay or with 200 TCID50/6×10^5 cells/well for a 24 well plate assay. Cells were added to a plate or flask containing a ten-fold serial dilution of the test compound. Assay medium was RPMI-1640 supplemented with heat inactivated 16% fetal bovine serum, 1.6 mM L-glutamine, 80 IU/ml penicillin, 80 μg/ml streptomycin, 0.0008% DEAE-Dextran, 0.045% sodium bicarbonate, and 26 IU/ml recombinant interleukin-2 (Chiron Corp, Emeryville, Calif.). AZT was used as a positive control for the assay. Untreated and uninfected PBM cells were grown in parallel at equivalent cell concentrations as controls. The cell cultures were maintained in a humidified 5% CO2-air at 37° C. for 5 days and supernatants were collected for reverse transcriptase (RT) activity.
Supernatants were centrifuged at 12,000 rpm for 2 hours to pellet the virus. The pellet was solubilized with vortexing in 100 μl virus solubilization buffer (VSB) containing 0.5% Triton X-100, 0.8 M NaCl, 0.5 mM phenylmethylsulfonyl fluoride, 20% glycerol, and 0.05 M Tris, pH 7.8. Ten μL of each sample were added to 75 μL RT reaction mixture (0.06 M Tris, pH 7.8, 0.012 M MgCl2, 0.006 M dithiothreitol, 0.006 mg/ml poly (rA)n, oligo (dT)12-18, 96 μg/ml dATP, and 1 μM of 0.08 mCi/ml ^3H-thymidine triphosphate (Moravek Biochemicals, Brea, Calif.) and incubated at 37° C. for 2 hours. The reaction was stopped by the addition of 100 μL 10% trichloroacetic acid containing 0.05% sodium pyrophosphate. The acid insoluble product was harvested onto filter paper using a Packard Harvester (Meriden, Conn.), and the RT activity was read on a Packard Direct Beta Counter (Meriden, Conn.). The RT results were expressed in counts per minute (CPM) per milliliter.

[5] = biological target: T2, adenosine deaminase (EC.3.5.4.4. from calf intestinal mucosa); parameters: adenosine deaminase (EC.3.5.4.4. from calf intestinal mucosa); from tissue; host or cells: calf intestinal mucosa; settings: literature value (ref. 28); cited from earlier work
HIV-1xxBRU = settings: cited from earlier work
HIV-1M184V = settings: cited from earlier work
[6] = human PBM cells, Ref. 11(b) Lee et al.

Nc1nc(=O)n([C@@H]2CS[C@H](CO)O2)cc1F [(−)-FTC, β-2′,3′-dideoxy-5-fluoro-3′-thiacytidine]
EC50 (HBV): 240 nM

Nc1ncnc2c1ncn2[C@@H]1O[C@H](CO)[C@@H](O)[C@H]1O [Adenosine, reference compound]
half-life at 20 μM [1]: 0.5 min

Cc1cn([C@@H]2CC(F)(F)[C@H](CO)O2)c(=O)[nH]c1=O [Compound 26, 1-(2,3-Dideoxy-3,3-difluoro-β-L-ribofuranosyl)thymine]
melting point: 140 °C (dec.)

Cc1cn([C@@H]2C=C(F)[C@H](CO)O2)c(=O)[nH]c1=O [Compound 28, 1-(2,3-dideoxy-3-fluoro-β-L-glycero-pent-2-eno-furanosyl)thymine]
melting point: 146 to 148 °C (dec.)

Nc1ncnc2c1ncn2[C@@H]1S[C@H](CO)C=C1F [Compound D-27, (−)-9-[(1R,4S)-2,3-dideoxy-2,3-didehydro-2-fluoro-4-thio-β-D-ribofuranosyl]-adenine]
IC50 [2]: > 100 µM | IC50 (human PBM cells): > 100 µM | kcat ([3]; 25° C., pH 7.4, 0.15 unit of enzyme): 0.94 s⁻¹ | Km ([3]; 25° C., phosphate buffer pH 7.4, substrate of ADA): 18.3 µM | t½ ([3]; bovine): 33 min | IC50 [4]: > 100 µM | EC50 (HIV-1LAI): 8.1 µM

Nc1ncnc2c1ncn2[C@@H]1O[C@H](CO)C=C1F [D-2′-F-d4A]
Km [5]: 23 µM

Nc1nc(=O)n([C@@H]2O[C@H](CO)C=C2F)cc1F [β-D-2′-F-d4FC]
EC50 (HIV-1xxBRU; EC50 instead of EC90 (footnote g), Ref. 23, read-out: Activity WT (xxBRU), anti-HIV activity in EC50): 3.1 µM | EC90 (HIV-1xxBRU; [6]): 9.9 µM | EC50 (HIV-1M184V; EC50 instead of EC90 (footnote g), Ref. 23, read-out: Activity M184V, anti-HIV activity in EC50): 9.6 µM | FI, fold increase (EC90 HIV-1M184V/EC90 HIV-1xxBRU) (HIV-1M184V; Ref. 11(b) Lee et al.): 3.5 | F1 (fold increase) in EC50 (HIV-1M184V; fold increase in EC50 (footnote g), Ref. 23): 3^g | EC90 (HIV-1M184V; [6]): 34.7 µM
